Results: patent US20160251350A1, “CRYSTALLINE FORMS OF A PYRROLOPYRIDINE COMPOUND” (Genentech, Inc., priority 2015, published 2016)
Values after ≈ are worked out from the molar mass of the structure shown.

Legend:
[1] = Aqueous solubility; type: physicochemical
[2] = Neat powder stability under ambient (25° C./60% RH) and accelerated (40° C./75% RH) conditions; type: physicochemical
Method: (§1) Chemical characteristics of (R)—N-(4-(3-aminopiperidin-1-yl)-5-bromo-1H-pyrrolo[2,3-b]pyridin-3-yl)cyclopropanecarboxamide free base (Form A) and maleate salt crystal forms: The stability of the crystal forms described in Examples 4 and 27 was measured neat as well as in a Powder-in-Capsule (PiC) formulation. The stability as neat powder was measured over a period of 1-year for the free base and 3-months for the maleate salt, under ambient (25° C./60% RH) and accelerated (40° C./75% RH) conditions. […] It should be noted that the maleate salt used in the neat powder stability study contained high levels (˜9% wt./wt.) of residual tetrahydrofuran (THF). The PiC stability using 15 mg of (R)—N-(4-(3-aminopiperidin-1-yl)-5-bromo-1H-pyrrolo[2,3-b]pyridin-3-yl)cyclopropanecarboxamide in Size 0 hard gelatin capsules was carried out over a period of 2-months at 5° C., ambient and accelerated conditions.

[3] = Powder-in-Capsule (PiC) formulation stability; type: physicochemical; details: 15 mg in Size 0 hard gelatin capsules, 2-months at 5° C., ambient and accelerated conditions
Method: as §1

[4] = Abbreviated excipient compatibility study at 50° C. with 20% H2O added; type: physicochemical; details: 4 weeks, common diluents and disintegrants
Method: To further investigate the chemical properties of these crystal forms, an abbreviated excipient compatibility study was run at 50° C. with 20% H2O added. The excipients used in the study consisted of common diluents and disintegrants and the study was conducted over a period of 4 weeks.

[5] = Oral absorption of PiC formulations versus solution, preclinical pharmacokinetic study; type: in vivo; details: canines, 3 mg/kg, crossover
Method: Biological characteristics of (R)—N-(4-(3-aminopiperidin-1-yl)-5-bromo-1H-pyrrolo[2,3-b]pyridin-3-yl)cyclopropanecarboxamide free base (Form A) and maleate salt crystal forms: The oral absorption of the crystal forms described in Examples 4 and 27 as PiC formulations was investigated in a preclinical pharmacokinetic study conducted in canines using a reduced Latin square crossover design at 3 mg/kg to compare the solid formulations to a solution of (R)—N-(4-(3-aminopiperidin-1-yl)-5-bromo-1H-pyrrolo[2,3-b]pyridin-3-yl)cyclopropanecarboxamide.

[6] = Hygroscopicity / water re-absorption at controlled relative humidity (DVS); type: physicochemical
Excerpt: The present invention is directed, inter alia, to crystalline forms of (R)—N-(4-(3-aminopiperidin-1-yl)-5-bromo-1H-pyrrolo[2,3-b]pyridin-3-yl)cyclopropanecarboxamide and salts, hydrates, and solvates thereof. The crystalline forms of the present invention can be identified by unique solid state signatures with respect to, for example, differential scanning calorimetry (DSC), X-ray powder diffraction (XRPD), and other solid state methods. Further characterization with respect to water or solvent content of the crystalline forms of the present invention can be gauged by any of the following methods for example, thermogravimetric analysis (TGA), DSC and the like. For DSC, it is known that the temperatures observed will depend upon sample purity, the rate of temperature change, as well as sample preparation technique and the particular instrument employed. Thus, the values reported herein relating to DSC thermograms can vary by about ±6° C. For desolvation events, DSC thermograms may vary by more than ±6° C. depending on instrument configuration and/or sample quantity. The values reported herein relating to DSC thermograms can also vary by about ±20 joules per gram. For XRPD, the relative intensities of the peaks can vary, depending upon the sample preparation technique, the sample mounting procedure and the particular instrument employed. Moreover, instrument variation and other factors can often affect the 2θ values. Therefore, the peak assignments of diffraction patterns can vary by about ±0.2 ° 2θ. The relative intensities of the reported peaks can also vary. For TGA, the features reported herein can vary by about ±5° C. The TGA features reported herein can also vary by about ±2% weight change due to, for example, sample variation. Further characterization with respect to hygroscopicity of the crystalline form can be gauged by, for example, dynamic vapor sorption (DVS). The DVS features reported herein can vary by about ±5% relative humidity. The DVS features reported herein can also vary by about ±5% weight change.
(R)—N-(4-(3-aminopiperidin-1-yl)-5-bromo-1H-pyrrolo[2,3-b]pyridin-3-yl)cyclopropanecarboxamide di-ethane sulfonic acid salt: (R)—N-(4-(3-aminopiperidin-1-yl)-5-bromo-1H-pyrrolo[2,3-b]pyridin-3-yl)cyclopropanecarboxamide di-ethanesulfonic acid salt hydrate was heated to 130° C. in a DSC apparatus and then cooled to room temperature. […] The physical properties of the non-solvated di-esylate salt of (R)—N-(4-(3-aminopiperidin-1-yl)-5-bromo-1H-pyrrolo[2,3-b]pyridin-3-yl)cyclopropanecarboxamide are summarized in Table 50 below.

`N[C@@H]1CCCN(c2c(Br)cnc3[nH]cc(NC(=O)C4CC4)c23)C1` [Form A, (R)—N-(4-(3-aminopiperidin-1-yl)-5-bromo-1H-pyrrolo[2,3-b]pyridin-3-yl)cyclopropanecarboxamide Form A] gave a solubility ([1]; 0.1N HCl, simulated gastric fluid) of 49900 µg/mL (≈ 132 mM), a solubility ([1]; FasSIF pH 6.8) of 2400 µg/mL (≈ 6.34 mM) and a solubility ([1]; fessif, FedSIF pH 5) of 10200 µg/mL (≈ 27 mM). The solubility ([1]; water, H2O) was 120 µg/mL (≈ 0.317 mM), the “Stability as neat powder” value ([2]; 1-year, ambient (25° C./60% RH) and accelerated (40° C./75% RH)) was “very good stability with no chiral or achiral degradation observed under any condition” and the PiC stability [3] was “did not cause any significant physical or chemical degradation”. For the same compound, the Degradation with excipients ([4]; listed as free base) was “significant degradation with lactose and Ac-Di-Sol® (croscarmellose sodium)”, the Degradation with excipients ([4]; listed as free base Form A) was “more stable with excipients than the maleate salt” and the Oral absorption [5] was “no significant differences in absorption”.

In the case of `Cl.Cl.N[C@@H]1CCCN(c2c(Br)cnc3[nH]cc(NC(=O)C4CC4)c23)C1` [Example 29, (R)—N-(4-(3-aminopiperidin-1-yl)-5-bromo-1H-pyrrolo[2,3-b]pyridin-3-yl)cyclopropanecarboxamide di-HCl salt], the DVS form conversion ([6]; above 80% RH) is reported as “dihydrate form above 80% RH” and the DVS hygroscopicity ([6]; below 80% RH) is reported as “Non-hygroscopic below 80% RH. Converts to a crystalline”.

In the case of `N[C@@H]1CCCN(c2c(Br)cnc3[nH]cc(NC(=O)C4CC4)c23)C1.O=C(O)/C=C\C(=O)O` [maleate salt, Maleic acid salt of (R)—N-(4-(3-aminopiperidin-1-yl)-5-bromo-1H-pyrrolo[2,3-b]pyridin-3-yl)cyclopropanecarboxamide], the “Aqueous Solubility” value ([1]; at pH ≦7) is reported as greater than 10 at pH ≦7 mg/mL, the “Stability as neat powder” value ([2]; 3-months, ambient and accelerated conditions, material contained ~9% wt./wt. residual THF) is reported as “very slight degradation under accelerated conditions” and the PiC stability [3] is reported as “stable”. The Degradation with excipients [4] was “significant degradation with all excipients investigated”, the Oral absorption [5] was “no significant differences in absorption” and the DVS hygroscopicity ([6]; at 80% RH) was “Non-hygroscopic”. For the same compound, the DVS weight gain ([6]; at 80% RH) was 0.3 % wt./wt.

In the case of `Br.Br.N[C@@H]1CCCN(c2c(Br)cnc3[nH]cc(NC(=O)C4CC4)c23)C1` [Example 30, (R)—N-(4-(3-aminopiperidin-1-yl)-5-bromo-1H-pyrrolo[2,3-b]pyridin-3-yl)cyclopropanecarboxamide di-HBr salt], the DVS hygroscopicity ([6]; below 80% RH) is reported as “Non-hygroscopic below 80% RH. Upon desorption the solids”.

With `CCS(=O)(=O)O.CCS(=O)(=O)O.N[C@@H]1CCCN(c2c(Br)cnc3[nH]cc(NC(=O)C4CC4)c23)C1` [anhydrate, (R)—N-(4-(3-aminopiperidin-1-yl)-5-bromo-1H-pyrrolo[2,3-b]pyridin-3-yl)cyclopropanecarboxamide di-ethane sulfonic acid salt] the Water re-absorption ([6]; 80% RH) was “re-absorbs water at 80% RH”.
